Reference: US20240342158A1, “METHOD OF TREATING AND/OR PREVENTING TYPE 1 DIABETES WITH CEPHARANTHINE” (ALBERT EINSTEIN COLLEGE OF MEDICINE, priority 2021, published 2024)

Experiments:
[1] = test system: splenocytes and draining lymph node cells of immunized NOD-DR3 mice; assay: Interferon gamma response of lymphocytes of co-immunized NOD-DR3 mice to the peptides; format: cell-based, humanized NOD-DR3 mice; conditions: lymphocytes of mice co-immunized with Tg.1571, GAD.492 and TPO.758, stimulated 48 hours
Text: Induction of T-Cell Response to Islet and Thyroid Autoantigens in Humanized NOD-DR3 Mice as a Model of APS3v: Previously we have identified 4 thyroid and islet peptides that triggered T-cell responses inNOD-DR3mice—Tg.1571,GAD.492, TPO.338 and TPO.758 (12). However, only 3 of these peptides (Tg.1571, GAD.492, and TPO.758) elicited significant B-cell (antibody) responses. Therefore, we concluded that these 3 peptides are the major T-cell epitopes in APS3v and used them to induce a model of APS3v in humanized NOD-DR3mice. To induce the APS3v model, 22 female NOD-DR3 mice 4-6 weeks old were co-immunized subcutaneously with these three peptides: Tg.1571, GAD.492 and TPO.758 (100 μg each peptide), in Complete Freund's Adjuvant (CFA, Sigma-Aldrich). Mice were immunized with peptides on day 0 and boosted on day 7, then sacrificed on day 21. As negative control, humanized NOD-DR3 littermates were immunized with PBS emulsified in CFA.
Cytokine Assays: Milliplex mouse cytokines/chemokine magnetic panel (Catalog no. MCYTOMAG-70K, EMD Millipore Corporation, Billerica, MA) was used to assay the cytokines, as described in the art. Briefly, splenocytes were plated at 2×10^6 cells per well in 500 μl of medium (RPMI/10% FBS). Supernatants from stimulated lymphocytes were collected 48 h after stimulation with peptides and stored in −80° C. until the assay was performed. The 96-well plate supplied in the kit was washed with the wash buffer supplied and the plate was shaken for 10 min at room temperature. Standards and quality controls were added, followed by the samples. The pre-mixed beads (Interferon gamma and IL-2) were sonicated, vortexed and added to the wells. After shaking the plate overnight at 4° C., the plate was washed twice with wash buffer. Detection antibodies were added for 1 h at room temperature, and Streptavidin-Phycoerythrin was added for 30 min at room temperature. The plate was washed twice and sheath fluid was added to resuspend the beads for 5 min before reading in Luminex 200 with xPONENT software (Luminex, Austin, Texas). […]

[2] = target: recombinant APS3v-HLA-DR3 (Homo sapiens, UniProt P01903+P01911, A100K/A102G/A103R/F55Y/I96L/K41T/P40S/Q125H/Q178H/Q39Y/R42S/S66N/T106N/W38E/Y61H); assay: ELISA inhibition assay of biotinylated peptide binding to recombinant APS3v-HLA-DR3; conditions: ELISA inhibition assay, final concentration 0.4 mM
Experimental: An in vitro binding assay was performed. […] On the day before the immunoassay was performed, a 96-well DELFIA yellow plate (PerkinElmer Life Science) was coated overnight with 20 μg/ml of L243 antibody [Hybridoma was purchased from ATCC, catalogue number HB-55, and IgG was purified by QED Bioscience (San Diego, CA)] in bicarbonate buffer, pH 9.6 (Sigma-Aldrich). L243 is a monoclonal antibody that specifically recognizes the DRa chain of HLA-DR when it is properly folded and complexed with the b chain. The plate was then washed with DELFIA wash buffer (diluted 1:25 from DELFIA wash concentrate, PerkinElmer) to wash off the excess L243 antibody. Blocking was performed using 2.5% BSA in PBS at room temperature for 1 h. After washing 4 times, 100 μl of the pre-incubated mix (containing recombinant APS3v-HLA-DR3 protein, APO, and small molecules) were added onto the plate and shaken at slow speed for 2 h at room temperature. After washing 4 times, DELFIA Europium-labeled streptavidin (PerkinElmer) diluted in DELFIA assay buffer (PerkinElmer) was added for 30 min and shaken at slow speed at room temperature. After washing for 6 times, DELFIA Enhancement Solution was added for 1 h until the optimal signal was reached. Time-resolved fluorescence was measured using the BMG reader (BMG Labtech, Cary, NC). A virtual screen identified 100 small molecules that were predicted to block the unique APS3v-HLA-DR3 pocket. To produce a manageable selection of compounds for validation we clustered the 100 compounds by their simplified molecular input line entry system (SMILES) similarity into 20 clusters. Of the 20 clusters we selected the top scoring members in each cluster. We have enhanced this list to include a total of 11 compounds that blocked APS3v-HLA-DR3, the key HLA-DR3 pocket that triggers APS3v. We tested the selected 11 small molecules identified by the virtual screen in our in vitro ELISA, to test whether the 11 small molecules can block APO peptide (the strongest known peptide binder to HLA-DR3) binding to recombinant APS3v-HLA-DR3. Of the 4 validated small molecules we selected S53 for further testing because it is the only one that has been used in humans before. […] ELISA was performed as previously described.

[3] = test system: splenocytes and draining lymph node cells of immunized NOD-DR3 mice; assay: Small molecule inhibition of cytokine production ex vivo (Milliplex); format: cell-based, humanized NOD-DR3 mice; design: GAD.492-induced IFN-g production: unit not given here; conditions: 1 μM small molecule + GAD.492 20 μg/ml, 48 h; GAD.492 alone 56.3
Experimental: Cytokine Assays: Milliplex mouse cytokines/chemokine magnetic panel (Catalog no. MCYTOMAG-70K, EMD Millipore Corporation, Billerica, MA) was used to assay the cytokines, as described in the art. Briefly, splenocytes were plated at 2×10^6 cells per well in 500 μl of medium (RPMI/10% FBS). Supernatants from stimulated lymphocytes were collected 48 h after stimulation with peptides and stored in −80° C. until the assay was performed. The 96-well plate supplied in the kit was washed with the wash buffer supplied and the plate was shaken for 10 min at room temperature. Standards and quality controls were added, followed by the samples. The pre-mixed beads (Interferon gamma and IL-2) were sonicated, vortexed and added to the wells. After shaking the plate overnight at 4° C., the plate was washed twice with wash buffer. Detection antibodies were added for 1 h at room temperature, and Streptavidin-Phycoerythrin was added for 30 min at room temperature. The plate was washed twice and sheath fluid was added to resuspend the beads for 5 min before reading in Luminex 200 with xPONENT software (Luminex, Austin, Texas).
Small Molecule Inhibition of Cytokine Production Ex Vivo: Eight NOD-DR3 mice were immunized with the three thyroidal/islet peptides. Upon sacrifice, splenocytes were incubated with 1 μM of small molecules (S5, S9, S15, S53) together with TPO.758 (20 μg/ml), GAD.492 (20 μg/ml) or Tg.1571 (20 μg/ml) respectively to assess the blockade of these peptides' presentation by the tested small molecules. Supernatants from stimulated lymphocytes were collected 48 h after stimulation with peptides and small molecules, and stored in −80° C. until the cytokine assay was performed. […]

Sequence of recombinant APS3v-HLA-DR3 (P01911 30-227 W38E/Q39Y/P40S/K41T/R42S/F55Y/Y61H/S66N/I96L/A100K/A102G/A103R/T106N/Q125H/Q178H): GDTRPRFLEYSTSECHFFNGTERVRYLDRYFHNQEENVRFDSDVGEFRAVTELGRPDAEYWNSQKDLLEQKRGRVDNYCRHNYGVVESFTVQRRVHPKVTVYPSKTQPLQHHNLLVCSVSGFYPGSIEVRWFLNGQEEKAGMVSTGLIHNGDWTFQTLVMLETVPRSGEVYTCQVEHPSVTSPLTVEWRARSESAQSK
Sequence of recombinant APS3v-HLA-DR3 (P01903 26-216): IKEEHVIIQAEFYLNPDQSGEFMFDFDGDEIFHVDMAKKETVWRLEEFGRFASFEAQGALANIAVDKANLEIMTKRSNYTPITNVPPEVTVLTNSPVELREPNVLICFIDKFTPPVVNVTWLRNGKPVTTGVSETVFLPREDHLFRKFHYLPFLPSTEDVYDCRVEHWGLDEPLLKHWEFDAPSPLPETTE

Row | Compound | interferon gamma (IFN-g) response to the peptide [1] [pg/mL] | inhibition of binding of the 3 peptides (TPO.758, GAD.492, Tg.1571) to the HLA-DR3 pocket [2] | GAD.492-induced IFN-g production [3]
1 | TPO.758: thyroid peroxidase (TPO) peptide ESGRRVLVYSCRHGYELQG (SEQ ID NO: 3) (TPO.758) | 717 |  | 
2 | GAD.492: glutamic acid decarboxylase 65 (GAD65) peptide REGYEMVFDGKPQHTNVCF (SEQ ID NO: 2) (GAD.492) | 99.6 |  | 
3 | Cc1ccc(-c2nnc(Nc3ccc(C(=O)Nc4ccccc4)cc3)c3ccccc23)cc1S(N)(=O)=O [S5] |  | significant inhibition of binding for all 3 peptides | 
4 | Tg.1571: thyroglobulin (Tg) peptide EKVPESKVIFDANAPVAVRSKVPDSEF (SEQ ID NO: 1) (Tg.1571) | 24.2 |  | 
5 | Cc1ccccc1Nc1nnc(-c2ccc(C)c(S(N)(=O)=O)c2)c2ccccc12 [S9] |  | only blocked GAD.492 and Tg.1571 binding | 
6 | COc1ccc(Nc2nnc(-c3ccc(C)c(S(N)(=O)=O)c3)c3ccccc23)cc1C(N)=O [S15] |  | significant inhibition of binding for all 3 peptides | 30.1
